Laboratory results from publication PMC6780721, “GOBP1 Plays a Key Role in Sex Pheromones and Plant Volatiles Recognition in Yellow Peach Moth, Conogethes punctiferalis (Lepidoptera: Crambidae)” (Insects, 2019).
Read-outs that look alike come from different tables or passages of the source.

Legend:
GOBP1 = GOBP1 (Conogethes punctiferalis, UniProt A0A2H4FXX2); test: Fluorescence competitive binding assay with 1-NPN, recombinant GOBP1; settings: for Intensity (%) GOBP1: 1-NPN fluorescence remaining in competitive binding, 2 µM protein, 2 µM 1-NPN, triplicates; for interaction with GOBP1 (in words): fluorescence binding assays, sex pheromones
Sequence of GOBP1 (A0A2H4FXX2 entry or part of it): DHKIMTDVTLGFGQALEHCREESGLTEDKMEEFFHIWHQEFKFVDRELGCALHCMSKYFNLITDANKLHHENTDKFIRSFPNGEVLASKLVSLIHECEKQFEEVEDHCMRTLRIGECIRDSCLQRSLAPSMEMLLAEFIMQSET
Text: (§1) Signal peptides were removed from complete ORF sequences of both genes and primers were designed, using antennal cDNA as the templates the GOBP1 and 2 were amplified and cloned using pEASY-T vector (TransGen Biotech, Beijing, China). The sense and antisense primers designed for GOBP1 and GOBP2. GOBP1 sense primers: 5′-[…]-3′ and antisense primer: 5′-[…]-3′ (BamH I and Hind III restriction sites are underlined); GOBP2 sense primer: 5′-[…]-3′ and antisense primer: 5′-[…]-3′ (EcoR I and Hind III restriction sites are underlined). The expected sequences were purified and cloned into the bacterial expression vector pET-30a (+) digested with the same enzymes. Then the plasmid was transformed into BL21 (DE3) competent cells (TransGen, Beijing, China) and the positive clone was inoculated in a liquid LB medium (4 L/protein) induced by 1 mM isopropyl-b-d-thiogalactoside (IPTG, Coollaber Science and Technology, Beijing, China) and placed in shaking incubator at 37 °C for 6 h. The induced bacterial cells were harvested from volume of 4 L liquid LB medium and centrifuged at 4 °C for 10 min (10,000 rpm). The pellets were subjected to ultrasonication and the recombinant GOBPs protein were purified by the Ni^2+-IDA column (His tagged) with a gradient concentration imidazole washing. The precipitate was resolved using 8 M carbamide and proteins were dialyzed in PBS buffer (pH 7.4) to remove the remaining chemical impurities from the protein. Purified protein concentrations of GOBP1 and GOBP2 was determined by the method of Bradford using BSA as standard The western blot method was performed to analyze the correct expression. […] The gel was sandwiched with a polyvinylidene fluoride (PVDF) membrane and sample in the gel was transferred to the PVDF (electrophoresis; 100 V, 200mA, 1 h). The film was washed four times using PBST (1% Tween-20 in 0.5 M Phosphate-buffered saline). 5% skim milk powder in PBST was used as blocking buffer. The PVDF membrane was incubated in primary antibody His (1:1000) and placed on shaker for overnight at 4 °C. The membrane was washed again using PBST and treated with second antibody sheep anti-rabbit antibody (1:5000) at 37 °C for 1 h. A final wash was given to the membrane and developed in ImageQuant LAS 4000 (GE, Pittsburgh, PA, USA) using western optimized HRP (horseradish peroxidase) reagent (Pierce, ELC kit, Thermoscientific, USA).
(§2) The fluorescence intensity was recorded on a FluoroMax-4 spectrophotometer (Horiba Scientific, Piscataway, NJ, USA) at room temperature using a 1 cm light path fluorimeter quartz cuvette. The fluorescent probe N-phenyl-1-naphthylamine (1-NPN) and all the tested chemicals were dissolved in HPLC purity methanol. The final concentration was prepared 2 mM. […] The fluorescence of 1-NPN was excited at 337 nm and emission spectra were recorded between […]. […] The GraphPad Prism 5 (GraphPad Software, Inc. San Diego, CA) was used to estimate the K1-NPN (KD of complex protein /1-NPN) values by nonlinear regression for a unique site of binding. It was assumed that the proteins were 100% active, with a stoichiometry of 1:1 (protein:ligand) at saturation. […] In the equation, [1-NPN] in the free concentration of 1-NPN, and K1-NPN is the dissociation constant of the complex protein/1-NPN.

GOBP2 = GOBP2 (Conogethes punctiferalis, UniProt A0A146JYY2); test: Fluorescence competitive binding assay with 1-NPN, recombinant GOBP2; settings: for Intensity (%) GOBP2: 1-NPN fluorescence remaining in competitive binding, 2 µM protein, 2 µM 1-NPN, triplicates
Sequence of GOBP2 (A0A146JYY2 entry or part of it): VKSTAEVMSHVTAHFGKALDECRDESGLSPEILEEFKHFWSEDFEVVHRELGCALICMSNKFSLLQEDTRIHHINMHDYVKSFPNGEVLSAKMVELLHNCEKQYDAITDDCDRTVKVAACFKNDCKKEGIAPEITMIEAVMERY
Text: as §1, §2

[1] = dissociation constant calculated from IC50: KD = [IC50]/(1+[1-NPN]/K1-NPN), pH 7.4, mean ± SD, read-out: KD (μM) GOBP1
[2] = ligand concentration halving initial 1-NPN fluorescence, pH 7.4, mean ± SD, read-out: IC50 (μM) GOBP1
[3] = dissociation constant calculated from IC50: KD = [IC50]/(1+[1-NPN]/K1-NPN), pH 7.4, mean ± SD, read-out: KD (μM) GOBP2
[4] = ligand concentration halving initial 1-NPN fluorescence, pH 7.4, mean ± SD, read-out: IC50 (μM) GOBP2

| SMILES | Intensity (%) GOBP1 (GOBP1; pH 7.4, mean ± SD) | Kd (GOBP1; [1]) | IC50 (GOBP1; [2]) | Intensity (%) GOBP2 (GOBP2; pH 7.4, mean ± SD) | Kd (GOBP2; [3]) | IC50 (GOBP2; [4]) | interaction with GOBP1 (in words) (GOBP1) | IC50 (GOBP1) | Kd (GOBP1) | IC50 (GOBP2) | Kd (GOBP2) |
| --- | --- | --- | --- | --- | --- | --- | --- | --- | --- | --- | --- |
| CCCCCCCCCCCCCCCC=O [Hexadecanal] | 48.64 ± 4.35% | 0.55 ± 0.08 µM | 1.29 ± 0.14 µM | 67.94 ± 1.79% | 8.7 ± 0.74 µM | 21.1 ± 1.83 µM | – | – | – | – | – |
| CCCCCCCCCCCCCCO [1-Tetradecanol] | 45.8 ± 0.56% | – | – | 85.52 ± 1.47% | – | – | – | 4.81 ± 0.72 µM | 2.05 ± 0.43 µM | 54 ± 2.56 µM | 22.3 ± 1.89 µM |
| CC/C=C\CCO [Cis-3-hexen-1-ol] | 94.99 ± 1.78% | – | – | 96.93 ± 0.99% | – | – | – | 78.63 ± 0.23 µM | 33.5 ± 1.21 µM | 51.3 ± 1.6 µM | 21.2 ± 1.14 µM |
| CCCCCO [1-Amyl alcohol] | 95.2 ± 1.12% | 14.3 ± 1.74 µM | 33.5 ± 1.02 µM | 96.54 ± 1.39% | – | 98.7 ± 2.3 µM | – | – | – | – | – |
| CC(C)=CCC/C(C)=C/CC/C(C)=C/CO [Farnesol] | 41.45 ± 2.51% | 0.35 ± 0.04 µM | 0.83 ± 0.09 µM | 55.64 ± 1.78% | 1.64 ± 0.03 µM | 3.98 ± 0.36 µM | – | – | – | – | – |
| C=C1CC/C=C(\C)CC[C@@H]2[C@@H]1CC2(C)C [Caryophllene] | 68.98 ± 3.16% | 3.88 ± 0.91 µM | 9.09 ± 2.42 µM | 89.93 ± 2.15% | 8.67 ± 1.12 µM | 21 ± 2.1 µM | – | – | – | – | – |
| CC1=CCC2CC1C2(C)C (stereo not drawn) [α-Pinene] | 64.96 ± 3.26% | – | – | 98.57 ± 1.13% | – | – | – | 11.1 ± 3.47 µM | 4.73 ± 0.48 µM | 67.9 ± 4.66 µM | 28.1 ± 4.06 µM |
| O=Cc1ccccc1 [Benzaldehyde] | 83.58 ± 6.61% | – | – | 94.76 ± 7.32% | – | – | – | 20.6 ± 1.31 µM | 8.79 ± 0.59 µM | 77.1 ± 1.4 µM | 31.9 ± 3.03 µM |
| CCCCCCO [n-Hexanol] | 97.23 ± 0.89% | 25.7 ± 0.43 µM | 60.4 ± 2.44 µM | 94.24 ± 1.82% | – | 95.2 ± 1.68 µM | – | – | – | – | – |
| c1ccc(Nc2cccc3ccccc23)cc1 [1-NPN, N-phenyl-1-naphthylamine, reference compound] | – | – | – | – | – | – | – | – | 0.74 ± 0.41 µM | – | 0.7 ± 0.38 µM |
| C=CC(C)(O)CCC=C(C)C (centres unmarked) [Linalool] | 74.52 ± 2.42% | – | – | 91.86 ± 0.71% | – | – | – | 15.7 ± 1.61 µM | 6.7 ± 0.69 µM | 44.8 ± 1.16 µM | 18.5 ± 0.48 µM |
| C=C1CCC2CC1C2(C)C (stereo not drawn) [β-Pinene] | 66.21 ± 2.96% | – | – | 97.15 ± 3.95% | – | – | – | 9.94 ± 2.72 µM | 4.24 ± 0.69 µM | 33.7 ± 3.29 µM | 13.9 ± 1.36 µM |
| C=C(C)[C@H]1CC=C(C)CC1 [Limonene] | 43.27 ± 2.47% | 1.54 ± 0.39 µM | 3.62 ± 0.89 µM | 92.62 ± 1.21% | 14.7 ± 2.78 µM | 35.5 ± 1.14 µM | – | – | – | – | – |

Further lines, with some results ahead:

| Intensity (%) GOBP1 (GOBP1; pH 7.4, mean ± SD) | Kd (GOBP1; [1]) | IC50 (GOBP1; [2]) | Intensity (%) GOBP2 (GOBP2; pH 7.4, mean ± SD) | Kd (GOBP2; [3]) | IC50 (GOBP2; [4]) | interaction with GOBP1 (in words) (GOBP1) | SMILES | IC50 (GOBP1) | Kd (GOBP1) | IC50 (GOBP2) | Kd (GOBP2) |
| --- | --- | --- | --- | --- | --- | --- | --- | --- | --- | --- | --- |
| 45.50 ± 4.58% | 3.11 ± 0.71 µM | 7.31 ± 1.43 µM | 96.44 ± 1.50% | 28.1 ± 0.62 µM | 68.1 ± 3.7 µM | – | CCCCCC=O [n-Hexanal] | – | – | – | – |
| 75.78 ± 5.17% | 5.76 ± 0.64 µM | 13.5 ± 3.22 µM | 96.80 ± 1.33% | 23.1 ± 4.68 µM | 56 ± 1.54 µM | – | CCCCCCC=O [Heptanal] | – | – | – | – |
| 20.88 ± 0.48% | 1.2 ± 0.09 µM | 2.82 ± 0.44 µM | 58.63 ± 2.72% | 3.58 ± 0.62 µM | 8.65 ± 1.87 µM | can interact | CCCCC/C=C\CCCCCCCCC=O [Z10-16:Ald, (Z)-10-hexadecenal] | – | – | – | – |
| 78.33 ± 2.89% | 7.17 ± 0.67 µM | 16.8 ± 2.41 µM | 98.12 ± 1.92% | 39.9 ± 9.7 µM | 96.7 ± 2.41 µM | – | CCCCCCCCCCC=O [Undecanal] | – | – | – | – |
| 71.04 ± 8.80% | 5.69 ± 0.36 µM | 13.3 ± 2.41 µM | 96.99 ± 2.63% | 38.3 ± 1.09 µM | 92.8 ± 3.83 µM | – | CCCCCCCCC=O [Nonanal] | – | – | – | – |
| 47.29 ± 7.52% | 2.09 ± 0.45 µM | 4.9 ± 0.54 µM | 84.05 ± 2.25% | 8.86 ± 0.93 µM | 21.4 ± 4.15 µM | can interact | CCCCC/C=C/CCCCCCCCC=O [E10-16:Ald, (E)-10-hexadecenal] | – | – | – | – |
